This note sets out measurements from patent US5252598A, “Labdane derivatives, a process for their preparation, and their use as medicaments” (Hoechst Aktiengesellschaft, priority 1987, dated 1993).

Converted amounts (≈) assume the structure as drawn. Structures can show the parent of a compound that is named as a salt.

In the first assay the test system is Guinea pig atrium. Briefly: Positive inotropic activity (contractility of isolated guinea pig atrium). Type of assay: cell-based. The conditions noted are these: Cavia porcellus, isolated left and right atria, Ringer's solution, 32° C., contractility recorded 7 to 10 minutes. On the procedure: Guineapigs of both sexes and weighing 400 g were sacrificed, and the heart was removed and placed in Ringer's solution at room temperature. Both the left and the right atria were then isolated and fixed in an organ holder, and the preparation was placed in an organ bath containing Ringer's solution and maintained at a temperature of 32° C. Carbogen (95% O2 and 5% CO2) was then bubbled through the organ bath. The compound to be tested is dissolved directly in water together with a stoichiometric amount of 0.1N HCL or a salt thereof to give a solution of known concentration and the latter is added to the bath. The contractility of the atrium is recorded for 7 to 10 minutes on a Nihon Kohden 4-channel pen recorder with an isometric strain gage. The activity is expressed on the basis of the resulting data as the EC50.
As to `C=C[C@@]1(C)CC(=O)[C@@]2(O)[C@](C)(O1)[C@@H](OC(=O)N1CCN(C)CC1)C=C1C(C)(C)CC[C@H](O)[C@@]12C`, the EC50 amounted to 0.24 µg/mL (≈ 0.504 µM).

`C=C[C@@]1(C)CC(=O)[C@@]2(O)[C@](C)(O1)[C@@H](OC(=O)CN1CC(C)OC(C)C1)C=C1C(C)(C)CC[C@H](O)[C@@]12C` (some centres unmarked) registered an EC50 of 0.079 µg/mL (≈ 0.156 µM).

In the case of `C=C[C@@]1(C)CC(=O)[C@@]2(O)[C@](C)(O1)[C@@H](OC(=O)CCN1CCCCC1)C=C1C(C)(C)CC[C@H](O)[C@@]12C`, the EC50 is 0.28 µg/mL (≈ 0.572 µM).

As for `C=C[C@@]1(C)CC(=O)[C@@]2(O)[C@](C)(O1)[C@@H](OC(=O)CCN1CCN(C)CC1)C=C1C(C)(C)CC[C@H](O)[C@@]12C`, the EC50 turned out to be 0.3 µg/mL (≈ 0.594 µM).

Turning to `C=C[C@@]1(C)CC(=O)[C@@]2(O)[C@](C)(O1)[C@@H](OC(=O)CCCN1CCN(C)CC1)C=C1C(C)(C)CC[C@H](O)[C@@]12C`, the EC50 turned out to be 0.12 µg/mL (≈ 0.231 µM).

Turning to `C=C[C@@]1(C)CC(=O)[C@@]2(O)[C@](C)(O1)[C@@H](OC(=O)CCCCN1CCOCC1)C=C1C(C)(C)CC[C@H](O)[C@@]12C`, the EC50 stood at 0.17 µg/mL (≈ 0.327 µM).

`C=C[C@@]1(C)CC(=O)[C@@]2(O)[C@](C)(O1)[C@@H](OC(=O)CN1CCSCC1)C=C1C(C)(C)CC[C@H](O)[C@@]12C` yielded an EC50 of 0.14 µg/mL (≈ 0.284 µM).

In turn, `C=C[C@@]1(C)CC(=O)[C@@]2(O)[C@](C)(O1)[C@@H](OC(=O)CN1CCC(O)(c3ccccc3)CC1)C=C1C(C)(C)CC[C@H](O)[C@@]12C` registered an EC50 of 0.3 µg/mL (≈ 0.528 µM).

Turning to `C=C[C@@]1(C)CC(=O)[C@@]2(O)[C@](C)(O1)[C@@H](OC(=O)COC(=O)CN1CCCCC1)C=C1C(C)(C)CC[C@H](O)[C@@]12C`, the EC50 stood at 3 µg/mL (≈ 5.62 µM).

As to `C=C[C@@]1(C)CC(=O)[C@@]2(O)[C@](C)(O1)[C@@H](OC(=O)COC(=O)CN1CCOCC1)C=C1C(C)(C)CC[C@H](O)[C@@]12C`, a half-maximal effect (EC50) was put at 1 µg/mL (≈ 1.87 µM).

Take `C=C[C@@]1(C)CC(=O)[C@@]2(O)[C@](C)(O1)[C@@H](OC(=O)COC(=O)CN1CC(C)OC(C)C1)C=C1C(C)(C)CC[C@H](O)[C@@]12C` (some centres unmarked): the response was half-maximal at 0.72 µg/mL (≈ 1.28 µM) (EC50).

The molecule `C=C[C@@]1(C)CC(=O)[C@@]2(O)[C@](C)(O1)[C@@H](OC(=O)COC(=O)CN1CCN(C)CC1)C=C1C(C)(C)CC[C@H](O)[C@@]12C` showed an EC50 of 0.44 µg/mL (≈ 0.802 µM).

As for `C=C[C@@]1(C)CC(=O)[C@@]2(O)[C@](C)(O1)[C@@H](OC(=O)COC(=O)CCN1CCN(C)CC1)C=C1C(C)(C)CC[C@H](O)[C@@]12C`, the EC50 was found to be 1 µg/mL (≈ 1.78 µM).

As for `C=C[C@@]1(C)CC(=O)[C@@]2(O)[C@](C)(O1)[C@@H](OC(=O)CCCN(C)C)C=C1C(C)(C)CC[C@H](O)[C@@]12C` [CO(CH2)3 N(CH3)2, 1α,9α-Dihydroxy-7β-(4-N,N-dimethylaminobutyryloxy)8,13-epoxylabda-5,14-dien-11-one], the EC50 came out at 0.058 µg/mL (≈ 0.125 µM).

Molecule `C=C[C@@]1(C)CC(=O)[C@@]2(O)[C@](C)(O1)[C@@H](OC(=O)CCCN(CC)CC)C=C1C(C)(C)CC[C@H](O)[C@@]12C` [CO(CH2)3 NEt2, 1α,9α-Dihydroxy-7β-(4-diethylaminobutyryloxy)-8,13-epoxylabda-5,14-dien-11-one] showed an EC50 of 0.037 µg/mL (≈ 0.0753 µM).

On to `C=C[C@@]1(C)CC(=O)[C@@]2(O)[C@](C)(O1)[C@@H](OC(=O)CCCCN(C)C)C=C1C(C)(C)CC[C@H](O)[C@@]12C` [CO(CH2)4 NMe2, 1α,9α-Dihydroxy-7β-(5-dimethylaminovaleryloxy)-8,13-epoxylabda-5,14-dien-11-one], for which the EC50 came to 0.755 µg/mL (≈ 1.58 µM).

For `C=C[C@@]1(C)CC(=O)[C@@]2(O)[C@](C)(O1)[C@@H](OC(=O)CN(CC)CC)C=C1C(C)(C)CC[C@H](O)[C@@]12C` [COCH2 N(C2 H5)2, 7β-Diethylaminoacetoxy-1α,9α-dihydroxy-8,13-epoxy-labd-5,14-dien-11-one hydrochloride], a half-maximal response (EC50) required 0.72 µg/mL.

`C=C[C@@]1(C)CC(=O)[C@@]2(O)[C@](C)(O1)[C@@H](OC(=O)COC=O)C=C1C(C)(C)CC[C@H](O)[C@@]12C` [COCH2 OCHO, 1α,9α-dihydroxy-8,13-epoxy-7β-formyloxyacetoxylabda-5,14-dien-11-one] had an EC50 of 0.024 µg/mL (≈ 0.055 µM).

For `C=C[C@@]1(C)CC(=O)[C@@]2(O)[C@](C)(O1)[C@@H](OC(=O)COC(=O)CN(CC)CC)C=C1C(C)(C)CC[C@H](O)[C@@]12C` [COCH2 OCOCH2 NEt2, hydrochloride hydrate], the EC50 worked out at 0.018 µg/mL.

`C=C[C@@]1(C)CC(=O)[C@@]2(O)[C@](C)(O1)[C@@H](OC(=O)COC(=O)CN(C)C)C=C1C(C)(C)CC[C@H](O)[C@@]12C` [COCH2 OCOCH2 NMe2, 1α,9α-Dihydroxy-7β-(N,N-dimethylaminoacetoxy)acetoxy-8,13-epoxy-labd-5,14-dien-11-one hydrochloride] had an EC50 of 0.8 µg/mL.

With `C=C[C@@]1(C)CC(=O)[C@@]2(O)[C@](C)(O1)[C@@H](OC(C)=O)C=C1C(C)(C)CC[C@H](O)[C@@]12C` [COCH3], the EC50 was determined as 0.028 µg/mL (≈ 0.0713 µM).

Molecule `C=C[C@@]1(C)CC(=O)[C@@]2(O)[C@](C)(O1)[C@@H](OC(=O)NC)C=C1C(C)(C)CC[C@H](O)[C@@]12C` [CONHCH3] had an EC50 of 0.051 µg/mL (≈ 0.125 µM).

As to `C=C[C@@]1(C)CC(=O)[C@@]2(O)[C@](C)(O1)[C@@H](OC(=O)[C@H](O)CO)C=C1C(C)(C)CC[C@H](O)[C@@]12C` [drawing 82], a half-maximal effect (EC50) was put at 0.0008 µg/mL (≈ 0.00182 µM).

`C=C[C@@]1(C)CC(=O)[C@@]2(O)[C@](C)(O1)[C@@H](OC(=O)N1CCOCC1)C=C1C(C)(C)CC[C@H](O)[C@@]12C` [drawing 83]: the EC50 was determined as 0.3 µg/mL (≈ 0.647 µM).

In turn, `C=C[C@@]1(C)CC(=O)[C@@]2(O)[C@](C)(O1)[C@@H](OC(=O)CN1CCCCC1)C=C1C(C)(C)CC[C@H](O)[C@@]12C` [drawing 92] displayed an EC50 of 0.072 µg/mL (≈ 0.151 µM).

Staying with this assay, now noted: isolated left and right atria, Ringer's solution, 32° C., contractility recorded 7 to 10 minutes.
As for `C=C[C@@]1(C)CC(=O)[C@@]2(O)[C@](C)(O1)[C@@H](OC(=O)CCCCN(C)C)C=C1C(C)(C)CC[C@H](O)[C@@]12C` [CO(CH2)4 NMe2, 1α,9α-Dihydroxy-7β-(5-dimethylaminovaleryloxy)-8,13-epoxylabda-5,14-dien-11-one], the “Guinea pig atrium EC50” value was 0.615 µg/mL.

The next assay deals with cats. As to the kind of experiment: Antihypertensive effect: blood pressure in anesthetized cats. It counts as in vivo. The conditions noted are these: anesthetized cat, i.v., 1 mg/kg. On the procedure: Cats of both sexes and weighing 3 to 4 kg were anesthetized with ether and maintained under chloralose anesthesia (70 mg/kg i.v.). Cannulas were placed in the femoral artery and in the femoral vein to record the blood pressure and to administer the medicament, respectively. The blood pressure in the femoral artery was recorded using a Statham P 23 Db pressure transducer on a Nihon-Kohden pen recorder for physiological purposes. The compound to be tested was dissolved, if a salt, in distilled water, otherwise in propylene glycol and administered intravenously. The fall in blood pressure and the duration of the hypotensive activity were determined.
For `C=C[C@@]1(C)CC(=O)[C@@]2(O)[C@](C)(O1)[C@@H](OC(=O)CN1CCCC1)C=C1C(C)(C)CC[C@H](O)[C@@]12C`, the “Decrease in BP” value was 40 mm Hg and the “Duration (hypotensive activity)” value stood at 90 min.

Take `C=C[C@@]1(C)CC(=O)[C@@]2(O)[C@](C)(O1)[C@@H](OC(=O)CN(CC)CC)C=C1C(C)(C)CC[C@H](O)[C@@]12C` [COCH2 N(C2 H5)2, 7β-Diethylaminoacetoxy-1α,9α-dihydroxy-8,13-epoxy-labd-5,14-dien-11-one hydrochloride]: the “Decrease in BP” value worked out at 36 mm Hg and the “Duration (hypotensive activity)” value was above 60 min.

For the molecule `C=C[C@@]1(C)CC(=O)[C@@]2(O)[C@](C)(O1)[C@@H](OC(=O)N1CCOCC1)C=C1C(C)(C)CC[C@H](O)[C@@]12C` [drawing 106], the “Decrease in BP” value came to 32 mm Hg and the “Duration (hypotensive activity)” value is 45 min.

For `C=C[C@@]1(C)CC(=O)[C@@]2(O)[C@](C)(O1)[C@@H](OC(=O)CN1CCCCC1)C=C1C(C)(C)CC[C@H](O)[C@@]12C` [drawing 107], the “Decrease in BP” value was 30 mm Hg and the “Duration (hypotensive activity)” value was determined as 90 min.

In the case of `C=C[C@@]1(C)CC(=O)[C@@]2(O)[C@](C)(O1)[C@@H](OC(=O)CN1CCN(C)CC1)C=C1C(C)(C)CC[C@H](O)[C@@]12C` [drawing 108], the “Decrease in BP” value is listed as 40 mm Hg and the “Duration (hypotensive activity)” value is above 120 min.

The next assay deals with conscious rabbits. Briefly: Reduction in intraocular pressure in conscious rabbits. The settings on record: rabbit, instilled into one eye, dose percentage 0.25. Type of assay: in vivo. On the procedure:
For this experiment rabbits of both sexes and weighing 2 to 3 kg are used. The intraocular pressure (IOP) is measured with a Schioetz tonometer after corneal anesthesia with 2% strength novocaine solution. […] […] The IOP is measured at defined time intervals, i.e. after 0.5, 1, 2, 3, 4 and 5 hours. The percentage reduction in the IOP is calculated using the baseline value.
As for `C=C[C@@]1(C)CC(=O)[C@@]2(O)[C@](C)(O1)[C@@H](OC(=O)[C@H](O)CO)C=C1C(C)(C)CC[C@H](O)[C@@]12C` [drawing 101], the “% decrease in IOD” value was 35.0% and the “Duration (decrease in IOD)” value is above 360 min.

Still in this assay, the particulars now being: rabbit, instilled into one eye, dose percentage 1.00.
Consider `C=C[C@@]1(C)CC(=O)[C@@]2(O)[C@](C)(O1)[C@@H](OC(=O)N1CCCC1)C=C1C(C)(C)CC[C@H](O)[C@@]12C`, for which the “% decrease in IOD” value was determined as 26.0% and the “Duration (decrease in IOD)” value was found to be 240 min.

As to `C=C[C@@]1(C)CC(=O)[C@@]2(O)[C@](C)(O1)[C@@H](OC(N)=O)C=C1C(C)(C)CC[C@H](O)[C@@]12C` [CONH2, 7β-Amino-carbonyloxy-1α,9α-dihydroxy-8,13-epoxy-labd-5,14-dien-11-one], the “% decrease in IOD” value turned out to be 30.0% and the “Duration (decrease in IOD)” value is above 360 min.

For `C=C[C@@]1(C)CC(=O)[C@@]2(O)[C@](C)(O1)[C@@H](OC(=O)NCCCC)C=C1C(C)(C)CC[C@H](O)[C@@]12C` [CONH(CH2)3 CH3], the “% decrease in IOD” value was 27.0% and the “Duration (decrease in IOD)” value was above 360 min.

Turning to `C=C[C@@]1(C)CC(=O)[C@@]2(O)[C@](C)(O1)[C@@H](OC(=O)NC)C=C1C(C)(C)CC[C@H](O)[C@@]12C` [CONHCH3], the “% decrease in IOD” value is listed as 24.0% and the “Duration (decrease in IOD)” value was above 360 min.

Staying with this assay, now noted: rabbit, instilled into one eye, dose percentage 2.00.
Consider `C=C[C@@]1(C)CC(=O)[C@@]2(O)[C@](C)(O1)[C@@H](OC(=O)CN1CCOCC1)C=C1C(C)(C)CC[C@H](O)[C@@]12C`, for which the “% decrease in IOD” value was determined as 20.3% and the “Duration (decrease in IOD)” value worked out at 360 min.

With `C=C[C@@]1(C)CC(=O)[C@@]2(O)[C@](C)(O1)[C@@H](OC(=O)CN1CCN(C)CC1)C=C1C(C)(C)CC[C@H](O)[C@@]12C` [drawing 104], the “% decrease in IOD” value is 23.9% and the “Duration (decrease in IOD)” value is 360 min.

As usually defined, the EC50 is the concentration at which the effect is half-maximal.
